Source: patent EP0533925A1, “OPTICAL ISOMER OF R-FORM OF DIPHENYL ETHER DERIVATIVE AND HERBICIDE CONTAINING THE SAME AS ACTIVE INGREDIENT” (TEIJIN LIMITED, priority 1990, dated 1991)
Counter-ions that a name gives are not always drawn.

Key:
Format in all cases: in vivo
Astragalus sinicus = experiment: Herbicidal activity, spray of diphenyl ether with N-phosphonomethylglycine derivative (Test Examples 6 to 10); set-up: key: 0 means the state where the plants are as sound as before the application of the active compound; 1, 2, 3 and 4 mean varying degrees of the enfeebled state of the plants between 0 and 5; 1, 2, 3 and 4 mean varying degrees of the enfeebled state of the plants between 0 and 5; 1, 2, 3 and 4 mean varying degrees of the enfeebled state of the plants between 0 and 5; 1, 2, 3 and 4 mean varying degrees of the enfeebled state of the plants between 0 and 5; 5 is the state where the plants are withered or killed by application of the active compound; settings: Application 0.375 Kg/ha (117) alone
Experimental: (§1) In these examples, all parts means parts by weight, unless otherwise noted. The herbicidal activity was evaluated on a scale of 6 degrees. In other words, 0 means the state where the plants are as sound as before the application of the active compound, while 5 is the state where the plants are withered or killed by application of the active compound, and 1, 2, 3 and 4 mean varying degrees of the enfeebled state of the plants between 0 and 5.
(§2) In each run, the diphenyl ether derivatives and the N-phosphonomethylglycine derivatives shown in Table 3 (in the indicated mixing ratios) was dissolved in 16 parts by volume of a mixture of water and acetone (1 : 1 by volume; containing 0.05 % of a nonionic surfactant, Sorpol-2680) in the indicated mixing ratio, respectively, to prepare spray solutions.
(§3) The plants tested were grown in vinyl resin pots (diameter 10 cm) filled with soil in a green house for 2 to 3 weeks after germination from seeds or tubers.
(§4) The spray solution was applied to the plants so that the total volume sprayed became 4 cc/100 cm², and the herbicidal activity was examined.
(§5) The alphabetical symbols in Tables 2 and 3 represent the following plants, respectively: a: Digitaria adscendens b: Setaria viridis c: Sorghum halepense d: Chenopodium album var. centrorubrum e: Amaranthus mangostanus f: Astragalus sinicus g: Abutilon theophrosti h: Solanum nigrum i: Xanthium strumarium j: Soybean; Glycine max k: Corn; Zea mays Table 2

Sorghum halepense = experiment: as above; set-up: key: 0 means the state where the plants are as sound as before the application of the active compound; 1, 2, 3 and 4 mean varying degrees of the enfeebled state of the plants between 0 and 5; 1, 2, 3 and 4 mean varying degrees of the enfeebled state of the plants between 0 and 5; 1, 2, 3 and 4 mean varying degrees of the enfeebled state of the plants between 0 and 5; 1, 2, 3 and 4 mean varying degrees of the enfeebled state of the plants between 0 and 5; 5 is the state where the plants are withered or killed by application of the active compound; settings: Application 0.375 Kg/ha (117) alone
Experimental: as §1, §2, §3, §4, §5

Digitaria adscendens = experiment: as above; set-up: key: 0 means the state where the plants are as sound as before the application of the active compound; 1, 2, 3 and 4 mean varying degrees of the enfeebled state of the plants between 0 and 5; 1, 2, 3 and 4 mean varying degrees of the enfeebled state of the plants between 0 and 5; 1, 2, 3 and 4 mean varying degrees of the enfeebled state of the plants between 0 and 5; 1, 2, 3 and 4 mean varying degrees of the enfeebled state of the plants between 0 and 5; 5 is the state where the plants are withered or killed by application of the active compound; settings: Application 0.375 Kg/ha (117) alone
Experimental: as §1, §2, §3, §4, §5

Corn; Zea mays = experiment: as above; set-up: key: 0 means the state where the plants are as sound as before the application of the active compound; 1, 2, 3 and 4 mean varying degrees of the enfeebled state of the plants between 0 and 5; 1, 2, 3 and 4 mean varying degrees of the enfeebled state of the plants between 0 and 5; 1, 2, 3 and 4 mean varying degrees of the enfeebled state of the plants between 0 and 5; 1, 2, 3 and 4 mean varying degrees of the enfeebled state of the plants between 0 and 5; 5 is the state where the plants are withered or killed by application of the active compound; settings: Application 0.375 Kg/ha (117) alone
Experimental: as §1, §2, §3, §4, §5

Solanum nigrum = experiment: as above; set-up: key: 0 means the state where the plants are as sound as before the application of the active compound; 1, 2, 3 and 4 mean varying degrees of the enfeebled state of the plants between 0 and 5; 1, 2, 3 and 4 mean varying degrees of the enfeebled state of the plants between 0 and 5; 1, 2, 3 and 4 mean varying degrees of the enfeebled state of the plants between 0 and 5; 1, 2, 3 and 4 mean varying degrees of the enfeebled state of the plants between 0 and 5; 5 is the state where the plants are withered or killed by application of the active compound; settings: Application 0.375 Kg/ha (117) alone
Experimental: as §1, §2, §3, §4, §5

Setaria viridis = experiment: as above; set-up: key: 0 means the state where the plants are as sound as before the application of the active compound; 1, 2, 3 and 4 mean varying degrees of the enfeebled state of the plants between 0 and 5; 1, 2, 3 and 4 mean varying degrees of the enfeebled state of the plants between 0 and 5; 1, 2, 3 and 4 mean varying degrees of the enfeebled state of the plants between 0 and 5; 1, 2, 3 and 4 mean varying degrees of the enfeebled state of the plants between 0 and 5; 5 is the state where the plants are withered or killed by application of the active compound; settings: Application 0.375 Kg/ha (117) alone
Experimental: as §1, §2, §3, §4, §5

[1] = tested on: Narrow-leaved Plants (a, b, c, k); experiment: Average withering rate, single and mixed solutions (Test Example 11); set-up: unit: %; settings: 3 weeks
From the text: as §5
(§6) In each run, the compound (1) according to the invention only or the N-phosphonomethylglycine derivatives (117) only or the mixture thereof were used as in the Test Example 1 to prepare single solutions and mixed solutions by using various amounts of each components. Each of the preparations were applied to the plants as in Test Example 1 and the cultivation was continued for 3 weeks without additive application thereafter.
(§7) The results were analyzed by Tammes's method [Tammes, P.M.L.: Neth. J. Plant Path., 70, 73-80 (1964)] which was cited in "Zasso Kenkyuu" (in Japanese) (Weed Studies) 14, 12-18 […] and shown in Fig. 1 and Fig. 2.
(§8) Fig. 1 represents the average withering rate of 4 kinds of narrow-leaved plants (a, b, c, and k), while Fig. 2 gives withering rate of 7 kinds of broad-leaved plants (d, e, f, g, h, i j). As these figures show clearly, the curve binding the points of 95 % effect is inside the one of the synergistic effect, thus it can be concluded that the mixed preparation has synergistic effect.

[2] = tested on: Broad-leaved Plants (d, e, f, g, h, i, j); experiment: as above; set-up: unit: %; settings: 3 weeks
From the text: as §5, §6, §7, §8

[3] = Compound (1) 0 kg a.i./ha, Compound (117) 0.094 kg a.i./ha
[4] = Compound (1) 0 kg a.i./ha, Compound (117) 0.188 kg a.i./ha
[5] = Compound (1) 0 kg a.i./ha, Compound (117) 0.375 kg a.i./ha
[6] = Compound (1) 0 kg a.i./ha, Compound (117) 0.750 kg a.i./ha
[7] = Compound (1) 0.008 kg a.i./ha, Compound (117) 0 kg a.i./ha
[8] = Compound (1) 0.016 kg a.i./ha, Compound (117) 0 kg a.i./ha
[9] = Compound (1) 0.031 kg a.i./ha, Compound (117) 0 kg a.i./ha

Question: How did the “herbicidal activity, Plants f” value (Astragalus sinicus; 3 days after treatment) turn out when `O=C(O)CNCP(=O)(O)O` [Compound (117), N-phosphonomethylglycine isopropylammonium salt] was run?
Answer: 0

Question: And the “herbicidal activity, Plants f” value (Astragalus sinicus; 7 days after treatment)?
Answer: 0

Question: And the “herbicidal activity, Plants f” value (Astragalus sinicus; 14 days after treatment)?
Answer: 0

Question: And the “herbicidal activity, Plants c” value (Sorghum halepense; 3 days after treatment)?
Answer: 0

Question: And the “herbicidal activity, Plants c” value (Sorghum halepense; 7 days after treatment)?
Answer: 0

Question: What about the “herbicidal activity, Plants c” value (Sorghum halepense; 14 days after treatment) of the same compound?
Answer: 1

Question: What about the “herbicidal activity, Plants a” value (Digitaria adscendens; 3 days after treatment) of the same compound?
Answer: 3

Question: What about the “herbicidal activity, Plants a” value (Digitaria adscendens; 7 days after treatment) of the same compound?
Answer: 1

Question: What about the “herbicidal activity, Plants a” value (Digitaria adscendens; 14 days after treatment) of the same compound?
Answer: 3

Question: And the “herbicidal activity, Plants k” value (Corn; Zea mays; 3 days after treatment)?
Answer: 0

Question: And the “herbicidal activity, Plants k” value (Corn; Zea mays; 7 days after treatment)?
Answer: 0

Question: What about the “herbicidal activity, Plants k” value (Corn; Zea mays; 14 days after treatment) of the same compound?
Answer: 0

Question: What about the “herbicidal activity, Plants h” value (Solanum nigrum; 3 days after treatment) of the same compound?
Answer: 0

Question: And the “herbicidal activity, Plants h” value (Solanum nigrum; 7 days after treatment)?
Answer: 0

Question: And the “herbicidal activity, Plants h” value (Solanum nigrum; 14 days after treatment)?
Answer: 0

Question: And the “herbicidal activity, Plants b” value (Setaria viridis; 3 days after treatment)?
Answer: 0

Question: And the “herbicidal activity, Plants b” value (Setaria viridis; 7 days after treatment)?
Answer: 0

Question: And the “herbicidal activity, Plants b” value (Setaria viridis; 14 days after treatment)?
Answer: 1

Question: What about the “Average Withering Rates of Narrow-leaved Plants (a, b, c, k)” value (from here on “Average Withering Rates … (a, b, c, k)”) [1, 3] of the same compound?
Answer: 50

Question: What about the “Average Withering Rates … (a, b, c, k)” value [1, 4] of the same compound?
Answer: 87

Question: What about the “Average Withering Rates … (a, b, c, k)” value [1, 5] of the same compound?
Answer: 87

Question: And the “Average Withering Rates … (a, b, c, k)” value [1, 6]?
Answer: 95

Question: What about the “Average Withering Rates of Broad-leaved Plants (d, e, f, g, h, i, j)” value (“Average Withering Rates … (d, e, f, g, h, i, j)” below) [2, 3] of the same compound?
Answer: 4

Question: And the “Average Withering Rates … (d, e, f, g, h, i, j)” value [2, 4]?
Answer: 36

Question: What about the “Average Withering Rates … (d, e, f, g, h, i, j)” value [2, 5] of the same compound?
Answer: 55

Question: And the “Average Withering Rates … (d, e, f, g, h, i, j)” value [2, 6]?
Answer: 80

Question: `COC(=O)C(C)Oc1cc(Oc2ccc(C(F)(F)F)cc2Cl)ccc1C#N` (stereo not drawn) [Compound (1), Methyl α-[2-cyano-5-(2-chloro-4-trifluoromethylphenoxy)phenoxy]propionate] was tested. Which “Average Withering Rates … (a, b, c, k)” value [1, 7] did it give?
Answer: 33

Question: What about the “Average Withering Rates … (a, b, c, k)” value [1, 8] of the same compound?
Answer: 47

Question: And the “Average Withering Rates … (a, b, c, k)” value [1, 9]?
Answer: 80

Question: And the “Average Withering Rates … (a, b, c, k)” value ([1]; Compound (1) 0.063 kg a.i./ha, Compound (117) 0 kg a.i./ha)?
Answer: 93

Question: And the “Average Withering Rates … (d, e, f, g, h, i, j)” value [2, 7]?
Answer: 80

Question: And the “Average Withering Rates … (d, e, f, g, h, i, j)” value [2, 8]?
Answer: 80

Question: And the “Average Withering Rates … (d, e, f, g, h, i, j)” value [2, 9]?
Answer: 96
